pIC50: −log10 of the molar value.

T1 sequence (P35408 whole entry): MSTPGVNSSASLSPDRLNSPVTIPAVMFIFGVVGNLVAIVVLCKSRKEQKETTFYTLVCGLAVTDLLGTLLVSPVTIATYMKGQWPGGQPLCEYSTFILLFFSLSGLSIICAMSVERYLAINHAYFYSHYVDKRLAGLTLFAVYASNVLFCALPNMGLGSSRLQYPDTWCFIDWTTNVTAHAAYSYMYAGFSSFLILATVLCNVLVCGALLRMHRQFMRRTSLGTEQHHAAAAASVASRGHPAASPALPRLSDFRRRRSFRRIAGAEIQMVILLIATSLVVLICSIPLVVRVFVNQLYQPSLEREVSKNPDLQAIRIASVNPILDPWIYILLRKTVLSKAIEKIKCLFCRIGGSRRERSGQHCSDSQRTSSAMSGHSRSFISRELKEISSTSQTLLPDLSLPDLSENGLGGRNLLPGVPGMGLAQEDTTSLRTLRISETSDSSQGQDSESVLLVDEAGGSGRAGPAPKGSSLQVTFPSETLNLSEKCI

The experiment has as its target T1, human EP4 receptors (Homo sapiens, UniProt P35408).
T1 construct: expressed in transfected cells
The experiment in a line: cAMP assay in human EP4 transfectant. The class given is cell-based. As to conditions: HEK293 cells expressing human EP4 receptors; 1 nM PGE2, 0.2 mM IBMX, 37° C. for 10 min. How it is done:
cAMP Assay in Human EP4 Transfectant HEK293 cells expressing human EP4 receptors (hEP4 cells) are maintained in DMEM containing 10% FBS and 500 μg/ml geneticin. For harvesting hEP4 cells, culture medium is aspirated and cells in 75 cm^2 flask are washed with 10 ml of phosphate buffered saline (PBS). Another 10 ml of PBS is added to the cells and incubated for 20 min at room temperature. Human EP4 cells are harvested by pipetting and centrifuged at 300×g for 4 min. Cells are resuspended in DMEM without neutral red at a density of 7×10^5 cells/ml containing 0.2 mM IBMX (PDE inhibitor), 1 nM PGE2 and test compounds in PCR-tubes, and incubated at 37° C. for 10 min. The reaction is stopped by heating at 100° C. for 10 min with thermal cycler. Concentration of cAMP in reaction mixtures is determined with SPA cAMP Kit (Amersham) or cAMP Screen™ (Applied Biosystems) according to the manufacture's instruction. Reference: Eur. J. Pharmacol. 340 (1997) 227-241 cAMP assay in human EP4 transfectant were conducted using the method described above. IC50: the concentration of the individual compound required to reduce the amount of ligand by 50%.
In the case of `O=C(O)c1ccc(CNC(=O)c2cc(Cl)ccc2OCCc2ccccc2)cc1` [EXAMPLE 1, 4-({[5-CHLORO-2-(2-PHENYLETHOXY-)BENZOYL]AMINO}METHYL)BENZOIC ACID], the pIC50 (as a rule, −log10 of the IC50, conventionally taken in molar units) was 6.83.

As for `O=C(O)c1ccc(CNC(=O)c2cc(Cl)ccc2OCCc2ccccc2Cl)cc1` [EXAMPLE 2, 4-[({5-CHLORO-2-[2-(2-CHLOROPHENYL)ETHOXY]BENZOYL}AMINO)METHYL]BENZOIC ACID], the pIC50 was 6.97.

For the compound `O=C(O)c1ccc(CNC(=O)c2cc(Cl)ccc2OCCc2ccc(F)cc2)cc1` [EXAMPLE 3, 4-[({5-CHLORO-2-[2-(4-FLUOROPHENYL)ETHOXY]BENZOYL}AMINO)METHYL]BENZOIC ACID], the pIC50 is 6.90.

For the compound `O=C(O)c1ccc(CNC(=O)c2cc(Cl)ccc2OCCc2ccc(Cl)cc2)cc1` [EXAMPLE 4, 4-[({5-CHLORO-2-[2-(4-CHLOROPHENYL)ETHOXY]BENZOYL}AMINO)METHYL]BENZOIC ACID], the pIC50 was 6.97.

Take `O=C(O)c1ccc(CNC(=O)c2cc(Cl)ccc2OCc2ccc(Cl)cc2)cc1` [EXAMPLE 6, 4-[({5-CHLORO-2-[(4-CHLOROBENZYL)OXY]BENZOYL)AMINO)METHYL]BENZOIC ACID]: the pIC50 was 6.36.

For the compound `Cc1ccccc1CCOc1ccc(Cl)cc1C(=O)NCc1ccc(C(=O)O)cc1` [EXAMPLE 7, 4-[({5-CHLORO-2-[2-(2-METHYLPHENYL)ETHOXY]BENZOYL}AMINO)METHYL]BENZOIC ACID], the pIC50 is 7.21.

With `C[C@H](NC(=O)c1cc(Cl)ccc1OCCc1c(F)cccc1F)c1ccc(C(=O)O)cc1` [EXAMPLE 8, 4-[(1S)-1-({5-CHLORO-2-[2-(2,6-DIFLUOROPHENYL)ETHOXY]BENZOYL}AMINO)ETHYL]BENZOIC ACID], the pIC50 is 7.01.

Take `C[C@H](NC(=O)c1cc(Cl)cnc1OCCc1ccc(F)cc1)c1ccc(C(=O)O)cc1` [EXAMPLE 9, 4-{(1S)-1-[({5-CHLORO-2-[2-(4-FLUOROPHENYL)ETHOXY]PYRIDIN-3-YL}CARBONYL)AMINO]ETHYL}BENZOIC ACID]: the pIC50 was 6.62.

`C[C@H](NC(=O)c1cc(Cl)ccc1OCCc1ccccc1F)c1ccc(C(=O)O)cc1` [EXAMPLE 10, 4-[(1S)-1-({5-CHLORO-2-[2-(2-FLUOROPHENYL)ETHOXY]BENZOYL}AMINO)ETHYL]BENZOIC ACID] gave a negative logarithm of the IC50 (pIC50) of 7.32.

For the compound `Cc1ccccc1CCOc1ccc(Cl)cc1C(=O)N[C@@H](C)c1ccc(C(=O)O)cc1` [EXAMPLE 11, 4-[(1S)-1-({5-CHLORO-2-[2-(2-METHYLPHENYL)ETHOXY]BENZOYL}AMINO)ETHYL]BENZOIC ACID], the pIC50 is 7.70.

`Cc1ccc(CCOc2ccc(Cl)cc2C(=O)N[C@@H](C)c2ccc(C(=O)O)cc2)cc1` [EXAMPLE 12, 4-[(1S)-1-({5-CHLORO-2-[2-(4-METHYLPHENYL)ETHOXY]BENZOYL}AMINO)ETHYL]BENZOIC ACID] gave a pIC50 of 7.68.

As to `C[C@H](NC(=O)c1cc(Cl)ccc1OC1CCCCC1)c1ccc(C(=O)O)cc1` [EXAMPLE 13, 4-((1S)-1-{[5-CHLORO-2-(CYCLOHEXYLOXY)BENZOYL]AMINO}ETHYL)BENZOIC ACID], the pIC50 was 7.46.

As for `CC(C)CCOc1ccc(Cl)cc1C(=O)N[C@@H](C)c1ccc(C(=O)O)cc1` [EXAMPLE 14, 4-((1S)-1-{[5-CHLORO-2-(3-METHYLBUTOXY)BENZOYL]AMINO}ETHYL)BENZOIC ACID], the pIC50 was 7.39.

In turn, `C[C@H](NC(=O)c1cc(Cl)cnc1OCCc1ccc(Cl)cc1)c1ccc(C(=O)O)cc1` [EXAMPLE 15, 4-{(1S)-1-[({5-CHLORO-2-[2-(4-CHLOROPHENYL)ETHOXY]PYRIDIN-3-YL}CARBONYL)AMINO]ETHYL}BENZOIC ACID] gave a negative logarithm of the IC50 (pIC50) of 7.11.

As for `C[C@H](NC(=O)c1cc(Cl)cnc1N(C)CCc1ccccc1)c1ccc(C(=O)O)cc1` [EXAMPLE 16, 4-{(1S)-1-[({5-CHLORO-2-[METHYL(2-PHENYLETHYL)AMINO]PYRIDIN-3-YL}CARBONYL)AMINO]ETHYL}BENZOIC ACID], the negative-log IC50 (pIC50) was 6.46.

`C[C@H](NC(=O)c1cc(Cl)ccc1O[C@H]1CC[C@@H](C)CC1)c1ccc(C(=O)O)cc1` [EXAMPLE 17, 4-[(1S)-1-({5-CHLORO-2-[(C/S4-METHYLCYCLOHEXYL)OXY]BENZOYL}AMINO)ETHYL]BENZOIC ACID]: the pIC50 is 6.29.

Consider `C[C@H](NC(=O)c1cc(Cl)ccc1O[C@H]1CC[C@H](C)CC1)c1ccc(C(=O)O)cc1` [EXAMPLE 18, 4-[(1S)-1-({5-CHLORO-2-[(TRANS-4-METHYLCYCLOHEXYL)OXY]BENZOYL}AMINO)ETHYL]BENZOIC ACID], for which the pIC50 is 6.59.

`Cc1ccccc1CCOc1ncc(Cl)cc1C(=O)N[C@@H](C)c1ccc(C(=O)O)cc1` [EXAMPLE 19, 4-{(1S)-1-[({5-CHLORO-2-[2-(2-METHYLPHENYL)ETHOXY]PYRIDIN-3-YL}CARBONYL)AMINO]ETHYL}BENZOIC ACID] showed a negative-log IC50 (pIC50) of 6.89.

As to `COC(C)(C)CCOc1ccc(Cl)cc1C(=O)N[C@@H](C)c1ccc(C(=O)O)cc1` [EXAMPLE 20, 4-((1S)-1-{[5-CHLORO-2-(3-METHOXY-3-METHYLBUTOXY)BENZOYL]AMINO}ETHYL)BENZOIC ACID], the pIC50 is 6.29.

For the compound `CC(C)OCCOc1ccc(Cl)cc1C(=O)N[C@@H](C)c1ccc(C(=O)O)cc1` [EXAMPLE 21, 4-((1S)-1-{[5-CHLORO-2-(2-ISOPROPOXYETHOXY)BENZOYL]AMINO}ETHYL)BENZOIC ACID], the pIC50 was 6.70.

`C[C@H](NC(=O)c1cc(Cl)ccc1OCc1ccccc1Cl)c1ccc(C(=O)O)cc1` [EXAMPLE 22, 4-[(1S)-1-({5-CHLORO-2-[(2-CHLOROBENZYL)OXY]BENZOYL}AMINO)ETHYL]BENZOIC ACID] gave a pIC50 of 7.89.

`C[C@H](NC(=O)c1cc(Cl)ccc1OCc1cccc(Cl)c1)c1ccc(C(=O)O)cc1` [EXAMPLE 23, 4-[(1S)-1-({5-CHLORO-2-[(3-CHLOROBENZYL)OXY]BENZOYL}AMINO)ETHYL]BENZOIC ACID] gave a pIC50 of 7.66.

In turn, `C[C@H](NC(=O)c1cc(Cl)ccc1OCc1ccc(Cl)cc1)c1ccc(C(=O)O)cc1` [EXAMPLE 24, 4-[(1S)-1-({5-CHLORO-2-[(4-CHLOROBENZYL)OXY]BENZOYL}AMINO)ETHYL]BENZOIC ACID] gave a pIC50 of 7.54.

In turn, `C[C@H](NC(=O)c1cc(Cl)ccc1OCc1ccc(F)cc1)c1ccc(C(=O)O)cc1` [EXAMPLE 25, 4-[(1S)-1-({5-CHLORO-2-[(4-FLUOROBENZYL)OXY]BENZOYL}AMINO)ETHYL]BENZOIC ACID] had a pIC50 of 7.34.

Compound `C[C@H](NC(=O)c1cc(Cl)ccc1OCCOc1ccccc1)c1ccc(C(=O)O)cc1` [EXAMPLE 26, 4-((1S)-1-{[5-CHLORO-2-(2-PHENOXYETHOXY)BENZOYL]AMINO}ETHYL)BENZOIC ACID] gave a pIC50 of 7.21.

Compound `COC(COc1ccc(Cl)cc1C(=O)N[C@@H](C)c1ccc(C(=O)O)cc1)c1ccccc1` (stereo partly drawn) [EXAMPLE 27, 4-((1S)-1-{[5-CHLORO-2-(2-METHOXY-2-PHENYLETHOXY)BENZOYL]AMINO}ETHYL)BENZOIC ACID] gave a pIC50 of 6.85.

Compound `C[C@H](NC(=O)c1cc(Cl)ccc1OCCOc1ccc(F)cc1)c1ccc(C(=O)O)cc1` [EXAMPLE 28, 4-[(1S)-1-({5-CHLORO-2-[2-(4-FLUOROPHENOXY)ETHOXY]BENZOYL}AMINO)ETHYL]BENZOIC ACID] gave a pIC50 of 6.68.

As for `C[C@H](NC(=O)c1cc(Cl)ccc1OCC1CCC1)c1ccc(C(=O)O)cc1` [EXAMPLE 29, 4-((1S)-1-{[5-CHLORO-2-(CYCLOBUTYLMETHOXY)BENZOYL]AMINO}ETHYL)BENZOIC ACID], the pIC50 was 7.52.

In the case of `CC(C)COc1ccc(Cl)cc1C(=O)N[C@@H](C)c1ccc(C(=O)O)cc1` [EXAMPLE 30, 4-{(1S)-1-[(5-CHLORO-2-ISOBUTOXYBENZOYL)AMINO}ETHYL]BENZOIC ACID], the pIC50 is 6.85.

In turn, `CC(C)CCOc1ncc(Cl)cc1C(=O)N[C@@H](C)c1ccc(C(=O)O)cc1` [EXAMPLE 31, 4-[(1S)-1-({[5-CHLORO-2-(3-METHYLBUTOXY)PYRIDIN-3-YL]CARBONYL}AMINO)ETHYL]BENZOIC ACID] gave a pIC50 of 6.85.

With `C[C@H](NC(=O)c1cc(Cl)ccc1OCc1cc(F)ccc1F)c1ccc(C(=O)O)cc1` [EXAMPLE 32, 4-[(1S)-1-({5-CHLORO-2-[(2,5-DIFLUOROBENZYL)OXY]BENZOYL}AMINO)ETHYL]BENZOIC ACID], the pIC50 was 7.30.

As to `C[C@H](NC(=O)c1cc(Cl)ccc1OCc1ccc(F)c(F)c1)c1ccc(C(=O)O)cc1` [EXAMPLE 33, 4-[(1S)-1-({5-CHLORO-2-[(3,4-DIFLUOROBENZYL)OXY]BENZOYL}AMINO)ETHYL]BENZOIC ACID], the pIC50 is 7.20.

In turn, `C[C@H](NC(=O)c1cc(Cl)ccc1OCCc1ccc(F)cc1)c1ccc(C(=O)O)cc1` [EXAMPLE 34, 4-[(1S)-1-({5-CHLORO-2-[2-(4-FLUOROPHENYL)ETHOXY]BENZOYL}AMINO)ETHYL]BENZOIC ACID] showed a pIC50 of 7.39.

In turn, `C[C@H](NC(=O)c1cc(Cl)ccc1OCc1ccc(F)cc1F)c1ccc(C(=O)O)cc1` [EXAMPLE 35, 4-[(1S)-1-({5-CHLORO-2-[(2,4-DIFLUOROBENZYL)OXY]BENZOYL}AMINO)ETHYL]BENZOIC ACID] gave a pIC50 of 6.96.

As to `C[C@H](NC(=O)c1cc(Cl)ccc1OCc1ccccc1F)c1ccc(C(=O)O)cc1` [EXAMPLE 36, 4-[(1S)-1-({5-CHLORO-2-[(2-FLUOROBENZYL)OXY]BENZOYL}AMINO)ETHYL]BENZOIC ACID], the pIC50 is 6.77.

The record behind these values is US20050250818A1, “Ortho substituted aryl or heteroaryl amide compounds” (Pfizer Inc, priority 2004, published 2005).
